Patent publication US11123355B2, “Antiviral benzyl-amine phosphodiamide compounds” (Merck Sharp & Dohme Corp., priority 2016, dated 2021)
pIC50: −log10 of the molar value. Where two headings read alike, the source gives them in different places.

Legend:
HIV-1 (H9/IIB strain) = assay: Multiple Round HIV-1 Infection Assay (Viking Assay) in MT4-GFP cells; format: cell-based; settings: inhibition of reproductive ratio R0
How it was run: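 Inhibition of the reproductive ratio R0, derived from the rise in GFP-positive cells between ~48 h and ~72 h post-infection, was fitted by 4-parameter regression to give IC50. Cells infected at MOI ~0.01 were exposed to compound (typically 8.4 μM–0.42 nM final) in 10% or 50% normal human serum.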

[1] = Prodrug Stability Assay in Bio-Relevant Media (FaSSIF with Pancreatin); format: in vitro ADME; settings: 0.5 mg/mL Pancreatin in FaSSIF, 37° C.; HPLC peak area of prodrug at 5 h divided by that at 0 h
Experimental: Prodrug Stability Assay in Bio-Relevant Media
The following assay was employed to evaluate the stability of the prodrugs in simulated gastrointestinal tract conditions. Preparation of fasted state simulated intestinal fluid (FaSSIF) using Phares SIF Powder was carried out according to protocols from Phare Drug Delivery AG (Baselland, Switzerland). For sample preparation, 10 μL stock solutions (10 mM) of prodrug substance in DMSO was added to 990 μL of 0.5 mg/mL Pancreatin solution (Fisher CAS #8049-47-6) in FaSSIF. Two samples were prepared for each compound. If the sample was a clear solution, it was directly analyzed by HPLC. If the sample was not clear, the sample was diluted with 100% MeCN, maintained at 37° C. and observed 5 h later. If the sample was clear, HPLC analysis was directly performed. If the sample was still not clear, the sample was diluted with 100% ACN and assayed by HPLC. All the samples were vortexed for 3 min and observed before injection. For the diluted samples, the area is multiplied by a dilution factor when the data is analyzed. The analysis was carried out with an Agilent 1100 series HPLC with autosampler. The column was a Poroshell 120 EC-C18, 4.6×50 mm, 2.7 μm. The flow rate was 1.8 mL/min, and the injection volume was 5 or 10 μL. UV detection was in the range 210-400 nm. The mobile phase consisted of solvent A (water plus 10 mM tetrabutylammonium bromide) and solvent B (acetonitrile) with a gradient of: 90% solvent A at 0 min, changing to 95% solvent B over 6 min, maintaining for 1.5 min, then reverting to 90% solvent A over 1.6 min. The HPLC peak area of the prodrug at 5 h was divided by the HPLC peak area of the prodrug at 0 h, to generate the % claimed parent ratio, which is summarized in Table 2 for gastrointestinal (GI) Tract stability.

[2] = MT4-GFP cells infected with HIV-1, 10% normal human serum, read-out: Viking, IC50 (10% NHS)
[3] = MT4-GFP cells infected with HIV-1, 50% normal human serum, read-out: Viking, IC50 (50% NHS)
[4] = Human immunodeficiency virus 1, MT4-GFP cells infected with HIV-1, 10% normal human serum, read-out: Viking, IC50 (10% NHS)
[5] = Human immunodeficiency virus 1, MT4-GFP cells infected with HIV-1, 50% normal human serum, read-out: Viking, IC50 (50% NHS)

| Molecule | pIC50 (HIV-1 (H9/IIB strain); [2]) | pIC50 (HIV-1 (H9/IIB strain); [3]) | GI Tract stability (%) [1] [%] | pIC50 (HIV-1 (H9/IIB strain); [4]) | pIC50 (HIV-1 (H9/IIB strain); [5]) |
| --- | --- | --- | --- | --- | --- |
| CCCOC(=O)C(C)(C)NP(=O)(CO[C@H](C)Cn1cnc2c(N)ncnc21)N[C@H](c1ccc(OC(F)(F)F)cc1)C(F)(F)F (stereo partly drawn) [Example 4A] | 8.46 | 7.54 | 95.8 | – | – |
| CCCOC(=O)C(C)(C)NP(=O)(CO[C@H](C)Cn1cnc2c(N)ncnc21)N[C@H](C)c1ccc(C(F)(F)F)cc1 (stereo partly drawn) [Example 12B, propyl 2-(((R)-((((R)-1-(6-amino-9H-purin-9-yl)propan-2-yl)oxy)methyl)(((R)-1-(4-(trifluoromethyl)phenyl)ethyl)amino)phos-phoryl)amino)-2-methylpropanoate and propyl 2-(((S)-((((R)-1-(6-amino-9H-purin-9-yl)propan-2-yl)oxy)methyl)(((R)-1-(4-(trifluoromethyl)phenyl)ethyl)amino)phos-phoryl)amino)-2-methylpropanoate] | 8.66 | 7.96 | 99.1 | – | – |
| CC(C)OC(=O)C(C)(C)N[P@@](=O)(CO[C@H](C)Cn1cnc2c(N)ncnc21)N[C@H](C)c1ccc(Cl)cc1 [Example 35B, isopropyl 2-(((R)-((((R)-1-(6-amino-9H-purin-9-yl)propan-2-yl)oxy)methyl)(((R)-1-(4-chlorophenyl)ethyl)amino)phosphoryl)ami-no)-2-methylpropanoate and isopropyl 2-(((S)-((((R)-1-(6-amino-9H-purin-9-yl)propan-2-yl)oxy)methyl)(((R)-1-(4-chlorophenyl)ethyl)amino)phosphoryl)ami-no)-2-methylpropanoate] | 8.54 | 7.66 | 70.5 | – | – |
| isopropyl 2-(((R)-((((R)-1-(6-amino-9H- purin-9-yl)propan-2-yl)oxy)methyl)((2-(4- chlorophenyl)propan-2- yl)amino)phosphoryl)amino)-2- methylpropanoate and isopropyl 2-(((S)-((((R)-1-(6-amino-9H- purin-9-yl)propan-2-yl)oxy)methyl)((2-(4- chlorophenyl)propan-2- yl)amino)phosphoroyl)amino)-2- methylpropanoate [Example 36A] | 8.49 | 7.43 | 20.2 | – | – |
| propyl 2-(((R)-((((R)-1-(6-amino-9H-purin- 9-yl)propan-2-yl)oxy)methyl)(((R)-2,2,2- trifluoro-1-(p- tolyl)ethyl)amino)phosphoryl)amino)-2- methylpropanoate and propyl 2-(((S)-((((R)-1-(6-amino-9H-purin- 9-yl)propan-2-yl)oxy)methyl)(((R)-2,2,2- trifluoro-1-(p- tolyl)ethyl)amino)phosphoryl)amino)-2- methylpropanoate [Example 26A] | 8.33 | 7.35 | 75.3 | – | – |
| CCCOC(=O)C(C)(C)NP(=O)(CO[C@H](C)Cn1cnc2c(N)ncnc21)N[C@H](C)c1ccc(Cl)cc1 (single isomer, unassigned) [Example 1B] | – | – | 98.7 | 8.33 | 7.44 |
| CCCOC(=O)C(C)(C)NP(=O)(CO[C@H](C)Cn1cnc2c(N)ncnc21)N[C@H](C)c1ccc(OC(F)(F)F)cc1 (single isomer, unassigned) [Example 3B] | – | – | 99.4 | 8.74 | 8.07 |
| CCCOC(=O)C(C)(C)NP(=O)(CO[C@H](C)Cn1cnc2c(N)ncnc21)N[C@H](c1cccc(OC)c1)C(F)(F)F (stereo partly drawn) [Example 25A, propyl 2-(((R)-((((R)-1-(6-amino-9H-purin-9-yl)propan-2-yl)oxy)methyl)(((R)-2,2,2-trifluoro-1-(3-methoxyphenyl)ethyl)amino)phosphoryl)a-mino)-2-methylpropanoate and propyl 2-(((S)-((((R)-1-(6-amino-9H-purin-9-yl)propan-2-yl)oxy)methyl)(((R)-2,2,2-trifluoro-1-(3-methoxyphenyl)ethyl)amino)phosphoryl)a-mino)-2-methylpropanoate] | 8.34 | 7.27 | 70.3 | – | – |
| CC(C)OC(=O)C(C)(C)NP(=O)(CO[C@H](C)Cn1cnc2c(N)ncnc21)N[C@H](C)c1ccc(OC(F)(F)F)cc1 (stereo partly drawn) [Example 34B, isopropyl 2-(((R)-((((R)-1-(6-amino-9H-purin-9-yl)propan-2-yl)oxy)methyl)(((R)-1-(4-(trifluoromethoxy)phenyl)ethyl)amino)phos-phoryl)amino)-2-methylpropanoate and isopropyl 2-(((S)-((((R)-1-(6-amino-9H-purin-9-yl)propan-2-yl)oxy)methyl)(((R)-1-(4-(trifluoromethoxy)phenyl)ethyl)amino)phos-phoryl)amino)-2-methylpropanoate] | 8.82 | 8.10 | 67.4 | – | – |
| CC(C)OC(=O)C(C)(C)N[P@@](=O)(CO[C@H](C)Cn1cnc2c(N)ncnc21)NC1(c2ccc(Cl)cc2)CC1 [Example 37B, isopropyl 2-(((R)-((((R)-1-(6-amino-9H-purin-9-yl)propan-2-yl)oxy)methyl)((1-(4-chlorophenyl)cyclopropyl)amino)phos-phoryl)amino)-2-methylpropanoate and isopropyl 2-(((S)-((((R)-1-(6-amino-9H-purin-9-yl)propan-2-yl)oxy)methyl)((1-(4-chlorophenyl)cyclopropyl)amino)phos-phoryl)amino)-2-methylpropanoate] | 8.29 | 7.52 | 21.1 | – | – |
| CCCOC(=O)C(C)(C)N[P@@](=O)(CO[C@H](C)Cn1cnc2c(N)ncnc21)N[C@H](C)c1cccc(F)c1 [Example 9B, propyl 2-(((R)-((((R)-1-(6-amino-9H-purin-9-yl)propan-2-yl)oxy)methyl)(((R)-1-(3-fluorophenyl)ethyl)amino)phosphoryl)ami-no)-2-methylpropanoate and propyl 2-(((S)-((((R)-1-(6-amino-9H-purin-9-yl)propan-2-yl)oxy)methyl)(((R)-1-(3-fluorophenyl)ethyl)amino)phosphoryl)ami-no)-2-methylpropanoate] | 7.92 | 6.89 | 90.9 | – | – |
| CCCOC(=O)C(C)(C)N[P@](=O)(CO[C@H](C)Cn1cnc2c(N)ncnc21)N(C)[C@H](C)c1ccc(OC(F)(F)F)cc1 [Example 33B, propyl 2-(((R)-((((R)-1-(6-amino-9H-purin-9-yl)propan-2-yl)oxy)methyl)(methyl((R)-1-(4-(trifluoromethoxy)phenyl)ethyl)amino)phos-phoryl)amino)-2-methylpropanoate and propyl 2-(((S)-((((R)-1-(6-amino-9H-purin-9-yl)propan-2-yl)oxy)methyl)(methyl((R)-1-(4-(trifluoromethoxy)phenyl)ethyl)amino)phos-phoryl)amino)-2-methylpropanoate] | 8.66 | 8.15 | 97.2 | – | – |
| CCCOC(=O)C(C)(C)NP(=O)(CO[C@H](C)Cn1cnc2c(N)ncnc21)N[C@H](C)c1ccc(OC(F)(F)F)cc1C (stereo partly drawn) [Example 21B, Propyl 2-(((R)-((((R)-1-(6-amino-9H-purin-9-yl)propan-2-yl)oxy)methyl)(((R)-1-(2-methyl-4-(trifluoromethoxy)phenyl)ethyl)amino)phos-phoryl)amino)-2-methylpropanoate and propyl 2-(((S)-((((R)-1-(6-amino-9H-purin-9-yl)propan-2-yl)oxy)methyl)(((R)-1-(2-methyl-4-(trifluoromethoxy)phenyl)ethyl)amino)phos-phoryl)amino)-2-methylpropanoate] | 9.00 | 8.24 | 71.5 | – | – |
| CCCOC(=O)C(C)(C)N[P@@](=O)(CO[C@H](C)Cn1cnc2c(N)ncnc21)NCc1ccc(OC(F)(F)F)cc1 [Example 7A, propyl 2-(((R)-((((R)-1-(6-amino-9H-purin-9-yl)propan-2-yl)oxy)methyl)((4-(trifluoromethoxy)benzyl)amino)phos-phoryl)amino)-2-methylpropanoate and propyl 2-(((S)-((((R)-1-(6-amino-9H-purin-9-yl)propan-2-yl)oxy)methyl)((4-(trifluoromethoxy)benzyl)amino)phos-phoryl)amino)-2-methylpropanoate] | 8.35 | 7.57 | 96.0 | – | – |
